# Results taken from article PMC12510174 (International Journal of Biological Sciences, 2025).
# Columns and labels:
# [1] = system: WERI-Rb1 orthotopic RB model; conditions: mouse, in vivo
# [2] = system: WERI-Rb1 orthotopic RB model; conditions: mouse, in vivo; remark: listed apart in the source
# retinoblastoma = conditions: human, in vivo; cited from earlier work
# [3] = system: WERI-Rb1 orthotopic RB model; conditions: mouse, in vivo; remark: listed apart in the source
# [4] = system: WERI-Rb1 orthotopic RB model; conditions: mouse, in vivo; remark: listed apart in the source
# [5] = mouse, in vivo
structure (smiles),measurement,setting,value
N[C@@H](Cc1ccc(N(CCCl)CCCl)cc1)C(=O)O [Melphalan],decrease of Ki-67 expression relative to the control,[1],about 30.3%
same,reduction of tumor burden (tumor area),[2],82.6%
same,overall globe salvage rate,retinoblastoma,66.4%
same,increase of p53 expression relative to the Control group,[3],71%
same,TUNEL positivity relative to the Control group,[4],1.77 fold
same,alanine aminotransferase and aspartate aminotransferase levels,[5],did not significantly deviate from the Control group
same,body weight during treatment,[5],no significant difference
N=C(N)NC(=O)c1nc(Cl)c(N)nc1N [amiloride],FITC-labeled Pri-MP uptake (Endocytosis species) alone or with added inhibitor,Y79,29.8%
same,inhibitory effect on Pri-MP uptake,Y79,64.5%
same,FITC-labeled Pri-MP uptake (Endocytosis species) alone or with added inhibitor,WERI-Rb1,22.9%
same,inhibitory effect on Pri-MP uptake,WERI-Rb1,73.0%
CN(C)CCCN1c2ccccc2Sc2ccc(Cl)cc21 [chlorpromazine],FITC-labeled Pri-MP uptake (Endocytosis species) alone or with added inhibitor,Y79,87.6%
same,reduction of Pri-MP uptake relative to vehicle controls,RB cells,< 10%
same,FITC-labeled Pri-MP uptake (Endocytosis species) alone or with added inhibitor,WERI-Rb1,87.0%
C=C1[C@@H](C)[C@H]2[C@H](Cc3ccccc3)NC(=O)[C@]23[C@H](OC(C)=O)/C=C/[C@@](C)(O)C(=O)[C@@H](C)C/C=C/[C@H]3[C@@H]1O [cytochalasin D],FITC-labeled Pri-MP uptake (Endocytosis species) alone or with added inhibitor,Y79,22.3%
same,inhibitory effect on Pri-MP uptake,Y79,72.4%
same,FITC-labeled Pri-MP uptake (Endocytosis species) alone or with added inhibitor,WERI-Rb1,38.4%
same,inhibitory effect on Pri-MP uptake,WERI-Rb1,55.4%
O=C(N/N=C/c1ccc(O)c(O)c1)c1cc2ccccc2cc1O [dynasore],FITC-labeled Pri-MP uptake (Endocytosis species) alone or with added inhibitor,Y79,73.8%
same,reduction of Pri-MP uptake relative to vehicle controls,RB cells,< 10%
same,FITC-labeled Pri-MP uptake (Endocytosis species) alone or with added inhibitor,WERI-Rb1,70.1%
CCCCC[C@@H](O)[C@H]1C(=O)O[C@H](C)[C@@H](O)/C=C/C=C/C=C/C=C/C=C(\C)[C@@H](O)C[C@H](O)C[C@H](O)C[C@H](O)C[C@H](O)C[C@H](O)C[C@@H]1O [filipin],FITC-labeled Pri-MP uptake (Endocytosis species) alone or with added inhibitor,Y79,78.6%
same,reduction of Pri-MP uptake relative to vehicle controls,RB cells,< 10%
same,FITC-labeled Pri-MP uptake (Endocytosis species) alone or with added inhibitor,WERI-Rb1,84.8%
O=c1c(-c2ccc(O)cc2)coc2cc(O)cc(O)c12 [genistein],FITC-labeled Pri-MP uptake (Endocytosis species) alone or with added inhibitor,Y79,85.2%
same,FITC-labeled Pri-MP uptake (Endocytosis species) alone or with added inhibitor,WERI-Rb1,87.0%
